In US8227207B2, “Bioactive peptides derived from the proteins of egg white by means of enzymatic hydrolysis” (Consejo Superior de Investigaciones Cientifcas, priority 2004, dated 2012):
“Also recorded” adds a separate entry of the source. Residues, ends and D or L forms follow the SMILES beside them.

Key:
[1] = system: spontaneously hypertensive rats (SHR); test: Anti-hypertensive activity, systolic arterial pressure (SAP), in spontaneously hypertensive rats; format: in vivo, rat; details: oral, intragastric probe, Captopril 50 mg/kg, SEQ. ID. No 6 and 3 0.5-2 mg/kg, SEQ. ID. No 2 1-4 mg/kg
Protocol: (§1) The effect is studied of various identified peptides and of some products containing them (for example egg white hydrolysed with pepsin for 3 hours and the fraction of it less than 3000 Da) on the arterial pressure of spontaneously hypertensive rats (SHR) and Wistar-Kyoto rats (WKY) which are the normotense controls for the SHR. This study is conducted with SHR (10) and WKY of 17-24 weeks old and weight between 300 and 350 g, coming from Charles River Laboratories […]. The rats are kept in cages of five by five and maintained at a stable temperature of 25° C. with light-dark cycles of 12 hours, ingesting freely available water and food. In order to carry out the measurement of systolic arterial pressure (SAP) “tail cuff” equipment is used (Le5001, Letica) which automatically provides a digital value of the SAP and records and facilitates the cardiac frequency of the animals. Various measurements are made and the average of all of them is obtained in order to achieve a reliable value of the SAP. Before positioning the cuff and transducer in the tail of the rats, the rats are exposed to a temperature of close to 30° C. in order to facilitate dilation of the caudal artery. Also, in order to ensure the reliability of the measurement, the animals are made to get used to the procedure for two weeks prior to conducting each assay in question. The administration of the products to be assayed is done by means of an intragastric probe in a time margin of between 9 and 10 o'clock in the morning. The SHR used for the study had SAP values of between 230 and 280 mm Hg. The WKY used for the study at that moment had SAP values of between 160 and 200 mm Hg. Measurements of the SAP were taken from the animals periodically, every 2 hours, up to 8 hours post-administration of the products to be assayed; in addition, a SAP measurement was taken 24 hours after the administration of those products. As negative control (in order to establish the circadian variation of the SAP in probed rats) the measurements of the SAP obtained in rats which had been administered 1 ml of water by means of intragastric probe were used. […] This dose of Captopril was administered to each rat in a volume of 1 ml. In order to establish the effect of the unhydrolysed egg white on the arterial pressure of the animals, similar assays to those described above were conducted, in which the animals were treated by the same procedure with 200 mg/kg of previously freeze-dried egg white (reference). The results obtained are grouped and the mean±the standard error of measurement (SEM) is obtained for a minimum of 9 homogenous assays. The data of the treated animals are always compared with the data deemed to be a negative control. […]

Wistar-Kyoto rats (WKY) [2] = test: Effect on systolic arterial pressure (SAP) in normotense Wistar-Kyoto rats; format: in vivo, rat; details: intragastric probe, highest dose used: SEQ. ID. No 6 and 3 2 mg/kg, SEQ. ID. No 2 4 mg/kg, Captopril 50 mg/kg
Protocol: as §1

Wistar-Kyoto rats (WKY) [3] = test: Systolic arterial pressure (tail cuff) in normotense Wistar-Kyoto rats; format: in vivo, rat; details: highest dose used, intragastric probe
Protocol: (§2) The effect is studied of various identified peptides and of some products containing them (for example egg white hydrolysed with pepsin for 3 hours and the fraction of it less than 3000 Da) on the arterial pressure of spontaneously hypertensive rats (SHR) and Wistar-Kyoto rats (WKY) which are the normotense controls for the SHR.
(§3) This study is conducted with SHR (10) and WKY of 17-24 weeks old and weight between 300 and 350 g, coming from Charles River Laboratories España, S. A. The rats are kept in cages of five by five and maintained at a stable temperature of 25° C. with light-dark cycles of 12 hours, ingesting freely available water and food. In order to carry out the measurement of systolic arterial pressure (SAP) “tail cuff” equipment is used (Le5001, Letica) which automatically provides a digital value of the SAP and records and facilitates the cardiac frequency of the animals. Various measurements are made and the average of all of them is obtained in order to achieve a reliable value of the SAP. Before positioning the cuff and transducer in the tail of the rats, the rats are exposed to a temperature of close to 30° C. in order to facilitate dilation of the caudal artery. Also, in order to ensure the reliability of the measurement, the animals are made to get used to the procedure for two weeks prior to conducting each assay in question.
(§4) The administration of the products to be assayed is done by means of an intragastric probe in a time margin of between 9 and 10 o'clock in the morning. The SHR used for the study had SAP values of between 230 and 280 mm Hg. The WKY used for the study at that moment had SAP values of between 160 and 200 mm Hg. Measurements of the SAP were taken from the animals periodically, every 2 hours, up to 8 hours post-administration of the products to be assayed; in addition, a SAP measurement was taken 24 hours after the administration of those products. As negative control (in order to establish the circadian variation of the SAP in probed rats) the measurements of the SAP obtained in rats which had been administered 1 ml of water by means of intragastric probe were used. As positive control, the measurements of the SAP obtained in rats which had been administered 50 mg/kg of Captopril (prototype ACEI drug) by means of intragastric probe were used. This dose of Captopril was administered to each rat in a volume of 1 ml. In order to establish the effect of the unhydrolysed egg white on the arterial pressure of the animals, similar assays to those described above were conducted, in which the animals were treated by the same procedure with 200 mg/kg of previously freeze-dried egg white (reference).
The results obtained are grouped and the mean±the standard error of measurement (SEM) is obtained for a minimum of 9 homogenous assays. […]

[4] = system: spontaneously hypertensive rats (SHR); test: Antihypertensive activity: systolic arterial pressure (tail cuff) in spontaneously hypertensive rats; format: in vivo, rat
Protocol: as §2, §3, §4
The results obtained are grouped and the mean±the standard error of measurement (SEM) is obtained for a minimum of 9 homogenous assays. The data of the treated animals are always compared with the data deemed to be a negative control. In order to compare them and obtain the statistical significance, Student's t-test for unpaired data is used and the difference for values of p<0.05 is considered significant.

[5] = system: angiotensin converting enzyme (ACE) (EC 3.4.15.1, Sigma); test: In vitro inhibitory activity of the angiotensin converting enzyme (ACEI activity); format: biochemical; details: result in words
Protocol: Measurement of the Inhibitory Activity of the Angiotensin Converting Enzyme (ACEI Activity)
The inhibitory activity of the angiotensin converting enzyme (ACE) is measured in vitro according to the method of D. W. Cushman and H. S. Cheung (Spectrophotometric assay and properties of the angiotensin-converting enzyme of rabbit lung. Biochemical Pharmacology, 1971, 20: 1637-1648), later on modified by Y. K. Kim, S. Yoon, D. Y. Yu, B. Lönnerdal and B. H. Cheung (Novel angiotensin-I-converting enzyme inhibitory peptides derived from recombinant human αs1-casein expressed in Escherichia coli, Journal of Dairy Research 1999, 66, 431-439).
The substrate hippuryl histidyl leucine (HHL, Sigma Chemicals Co., St. Louis, Mo., USA) is dissolved in a 0.1 M borate buffer with 0.3 M NaCl pH 8.3 to obtain a final concentration of 5 mM. To 100 μl of substrate are added 40 μl of each of the samples whose ACEI activity it is wished to determine. The ACE enzyme (EC 3.4.15.1, Sigma) is added, dissolved in 50% glycerol and diluted 1/10 in bidistilled water at the moment of conducting the assay. The reaction is carried out at 37° C. for 30 minutes in a water-bath. The enzyme is deactivated by lowering the pH with 150 μl of 1 N HCl. The hippuric acid formed is extracted with 1000 μl of ethyl acetate. Following vortex stirring for 20 seconds, it is centrifuged at 4000 rpm for 10 minutes at room temperature. 750 μl of the organic phase are taken and evaporated by heating at 95° C. for 10 minutes. The hippuric acid residue is redissolved in 800 μl of bidistilled water and, following stirring for 20 seconds, the absorbency at 228 nm is measured in a Dur-70 spectrophotometer from Beckman Instruments, Inc., Fullerton, USA.
In order to calculate the percentage of ACEI activity, the following formula is used
The blank is used for correcting the background absorbency. This contains substrate, enzyme and 20 μl of bidistilled water in place of the sample, and the reaction is halted at zero time. The control implies a hundred percent of the enzymatic action on the substrate in the absence of inhibitors and contains 20 μl of water in place of the sample and is incubated the same time as the sample.
The results are presented as the IC50 (μM or μg/ml) or concentration at which 50% of the enzyme's activity is inhibited. The concentration of protein is determined by means of the bicinchonomic acid (BCA) assay (Pierce, Rockford, Ill., USA) using bovine seroalbumin as reference.

[6] = system: spontaneously hypertensive rats (SHR); details: literature, cited from earlier work; for anti-hypertensive activity relative to ovokinin (2-7): following administration to SHRs
[7] = system: angiotensin converting enzyme (ACE); details: result in words, literature; cited from earlier work
[8] = system: spontaneously hypertensive rats (SHR); details: ovokinin oral 100 mg/kg, ovokinin (2-7) 10 mg/kg; cited from earlier work

Row | SMILES | anti-hypertensive activity / drop in SAP [1] | effect on SAP (Wistar-Kyoto rats (WKY) [2]) | ACEI activity in vitro [5] | further results
1 | C[C@H](CS)C(=O)N1CCC[C@H]1C(=O)O [Captopril, reference compound] | pronounced drop in SAP in the SHR | none of these compounds modifies the SAP of WKY rats |  | change in SAP in normotense rats (in words) (Wistar-Kyoto rats (WKY) [3]): none of these compounds modifies the SAP; time of maximum drop in SAP after administration ([4]; intragastric probe): 6 h; drop in systolic arterial pressure (SAP) / anti-hypertensive activity (in words) ([4]; single administration by intragastric probe): pronounced drop in SAP
2 | CC(C)C[C@H](NC(=O)[C@H](Cc1ccccc1)NC(=O)[C@@H]1CCCN1C(=O)[C@H](Cc1cnc[nH]1)NC(=O)[C@H](CC(=O)O)NC(=O)[C@H](C)NC(=O)[C@@H](N)CCCNC(=N)N)C(=O)O [SEQ. ID. No 3, RADHPFL] (H-RADHPFL-OH) | possess anti-hypertensive activity in spontaneously hypertensive rats (SHR); also recorded: display anti-hypertensive activity in rats | none of these compounds modifies the SAP of WKY rats | potent ACEI activity in vitro | 
3 | CC(C)C[C@H](NC(=O)[C@@H]1CCCN1C(=O)[C@@H](N)CCCNC(=N)N)C(=O)N[C@@H](CCCCN)C(=O)N1CCC[C@H]1C(=O)N[C@@H](Cc1c[nH]c2ccccc12)C(=O)O [RPLKPW] (H-RPLKPW-OH) |  |  |  | minimum effective dose ([6]; SHR): 0.1 mg/kg; anti-hypertensive activity relative to ovokinin (2-7) [6]: 100 times; ACEI activity [7]: neither ovokinin (2-7), nor its RPFHPF (SEQ. ID. NO: 10) or RPLKPW (SEQ. ID. NO: 11) derivatives possessed ACEI activity
4 | CC[C@H](C)[C@H](NC(=O)[C@@H]1CCCN1C(=O)[C@H](Cc1ccc(O)cc1)NC(=O)[C@H](CCCNC(=N)N)NC(=O)[C@H](CCC(=O)O)NC(=O)[C@H](CCC(=O)O)NC(=O)[C@H](C)NC(=O)[C@@H](N)Cc1ccc(O)cc1)C(=O)N[C@@H](CC(C)C)C(=O)O [SEQ. ID. No 6] (H-YAEERYPIL-OH) | possess anti-hypertensive activity in spontaneously hypertensive rats (SHR); also recorded: display anti-hypertensive activity in rats | none of these compounds modifies the SAP of WKY rats | potent ACEI activity in vitro | 
5 | CC(C)C[C@H](N)C(=O)N[C@@H](Cc1c[nH]c2ccccc12)C(=O)O [LW] |  |  |  | anti-hypertensive / vasodilatory activity in SHR (in words) [8]: displayed anti-hypertensive activity; anti-hypertensive activity ([6]; SHR, ovokinin orally 100 mg/kg): displayed anti-hypertensive activity in spontaneously hypertensive rats (SHR)
6 | CC[C@H](C)[C@H](N)C(=O)N[C@H](C(=O)N[C@@H](Cc1ccccc1)C(=O)O)C(C)C [SEQ. ID. No 2, IVF] | possess anti-hypertensive activity in spontaneously hypertensive rats (SHR); also recorded: display anti-hypertensive activity in rats | none of these compounds modifies the SAP of WKY rats | potent ACEI activity in vitro | 
7 | N=C(N)NCCC[C@H](N)C(=O)N1CCC[C@H]1C(=O)N[C@@H](Cc1ccccc1)C(=O)N[C@@H](Cc1cnc[nH]1)C(=O)N1CCC[C@H]1C(=O)N[C@@H](Cc1ccccc1)C(=O)O [RPFHPF] (H-RPFHPF-OH) |  |  |  | minimum effective dose ([6]; SHR): 1 mg/kg; anti-hypertensive activity relative to ovokinin (2-7) [6]: 10 times; ACEI activity [7]: neither ovokinin (2-7), nor its RPFHPF (SEQ. ID. NO: 10) or RPLKPW (SEQ. ID. NO: 11) derivatives possessed ACEI activity
